In PubChem BioAssay (NCI):
Where “and” joins values, the source holds several entries; their conditions need not be identical. Equal values may be shown once.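 A five-concentration, 48-hour dose response in 96-well plates underlies each endpoint, interpolated linearly between surrounding concentrations. GI50 = concentration required for 50% inhibition of growth. TGI denotes the concentration required for complete inhibition of growth.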 *1 amine or outer side, *2 acyl side, *3 side chain or, on linkers, in order; H or OH if unused. Where a SMILES comes first, the peptide text is derived from it. [ ]: non-standard residue; d: D form. The star is where a group is joined. X12 = NCCCCC(N[*:1])C(=O)CN1CCCC1C(=O)[*:2]; Pentadecanoyl = CCCCCCCCCCCCCCC(=O)*

Legend:
Assay in all cases: NCI tumour cell line growth inhibition, 48 h
T-47D breast = test system: T-47D breast
786-0 renal = test system: 786-0 renal
CCRF-CEM leukemia = test system: CCRF-CEM leukemia
MCF7 breast = test system: MCF7 breast
MDA-N = test system: MDA-N
DU-145 prostate = test system: DU-145 prostate
HL-60(TB) leukemia = test system: HL-60(TB) leukemia
OVCAR-8 ovarian = test system: OVCAR-8 ovarian
COLO 205 colon = test system: COLO 205 colon
SK-MEL-2 melanoma = test system: SK-MEL-2 melanoma
SNB-75 CNS = test system: SNB-75 CNS

Compound | TGI (T-47D breast) | TGI (786-0 renal) | TGI (CCRF-CEM leukemia) | TGI (MCF7 breast) | TGI (MDA-N) | TGI (DU-145 prostate) | TGI (HL-60(TB) leukemia) | TGI (OVCAR-8 ovarian) | TGI (COLO 205 colon) | TGI (SK-MEL-2 melanoma) | TGI (SNB-75 CNS) | GI50 (T-47D breast) | GI50 (CCRF-CEM leukemia) | GI50 (MCF7 breast) | GI50 (DU-145 prostate) | GI50 (HL-60(TB) leukemia) | GI50 (OVCAR-8 ovarian) | GI50 (COLO 205 colon) | GI50 (SNB-75 CNS) | GI50 (SK-MEL-2 melanoma)
CC1CC/C(=C\c2ccc(F)cc2)C2=C1C(c1ccc(F)cc1)NC(=S)N2 (stereo not given) | 70.8 µM | > 100 µM | > 100 µM | > 100 µM | > 100 µM | > 100 µM | > 100 µM | > 100 µM | > 100 µM | > 100 µM | – | – | – | – | – | – | – | – | – | –
O=C(Nc1ccccc1C(=O)O)C(=Cc1ccccc1O)NC(=O)c1ccccc1 | > 100 µM | > 100 µM | > 100 µM | > 100 µM | – | > 100 µM | > 100 µM | > 100 µM | > 100 µM | > 100 µM | > 100 µM | – | – | – | – | – | – | – | – | –
CCOC(=O)CCN1C(=O)c2c(NC(=O)C(=O)O)cccc2S1(=O)=O | > 100 µM | > 100 µM | > 100 µM | > 100 µM | > 100 µM | > 100 µM | > 100 µM | > 100 µM | > 100 µM | > 100 µM | – | – | – | – | – | – | – | – | – | –
COc1cc2c3c4[n+](cc2c(OC)c1OC)CCC4CCC3 (stereo not given) | > 100 µM | > 100 µM | > 100 µM | > 100 µM | > 100 µM | > 100 µM | – | > 100 µM | > 84.7 µM | > 100 µM | – | – | – | – | – | – | – | – | – | –
CCN(CC)CCC1(C(=O)OC)SCCc2ccc(C)cc21 (stereo not given) | > 100 µM | > 100 µM | > 100 µM | > 100 µM | > 100 µM | > 100 µM | – | > 100 µM | > 100 µM | > 100 µM | > 100 µM | – | – | – | – | – | – | – | – | –
COc1ccc(-c2nc3ncccn3c2-c2ccc(S(C)(=O)=O)cc2)cc1 | – | > 100 µM | > 100 µM | 81.8 µM | – | > 100 µM | > 100 µM | > 100 µM | > 100 µM | > 100 µM | > 100 µM | – | – | – | – | – | – | – | – | –
O=c1[nH]c(=O)c2c([nH]1)[nH]c1ccccc12 | > 100 µM | > 100 µM | > 100 µM | > 100 µM | > 100 µM | > 100 µM | – | > 100 µM | > 100 µM | > 100 µM | > 100 µM | – | – | – | – | – | – | – | – | –
Oc1[nH]c2ccccc2c1N=NC(=S)NCc1ccccn1 | 21.4 µM | 13.6 µM | – | 14.1 µM | 19.9 µM | 12.7 µM | – | 26.7 µM | 13.6 µM | 28.7 µM | 6.6 µM | – | – | – | – | – | – | – | – | –
COc1ccc(Nc2ccnc3cc(Cl)ccc23)cc1CN(CCCl)CCCl | > 100 µM | – | – | 6.42 µM | – | 3.54 µM | 3.96 µM | > 100 µM | 3.56 µM | – | – | 2.27 µM | 0.664 µM | 0.633 µM | 0.901 µM | 0.944 µM | 2.2 µM | 1.39 µM | – | –
H-KIFKKFKTIIKKVWRIFGRF-NH2 | – | – | > 100 µM | > 100 µM | – | – | 57.1 µM | > 100 µM | – | 6.23 µM | 6.99 µM | – | 2.53 µM | 3.04 µM | – | 5.23 µM | 3.28 µM | – | 2.5 µM | 2.63 µM
O=c1cc(-c2ccccc2)[nH]c2c(F)ccc(F)c12 | – | > 100 µM | > 100 µM | – | – | – | > 100 µM | > 100 µM | > 100 µM | 77.1 µM | 59 µM | – | – | – | – | – | – | – | – | –
COC1OC(=O)C(OC)C(OC)C1OC (stereo not given) | > 100 µM | > 100 µM | – | > 100 µM | > 100 µM | > 100 µM | > 100 µM | > 100 µM | > 100 µM | > 100 µM | > 100 µM | – | – | – | – | – | – | – | – | –
N#Cc1c(NC(=S)Nc2ccccc2)sc2c1CCCC2 | > 100 µM | > 100 µM | – | > 100 µM | > 100 µM | > 100 µM | > 100 µM | > 100 µM | > 100 µM | > 100 µM | > 100 µM | – | – | – | – | – | – | – | – | –
COc1cccc2c1C(=O)c1c(O)c3c(c(O)c1C2=O)C[C@@](O)(C(=O)CO)CC3OC1CC(NCCCCC(OC(C)=O)OC(C)=O)C(O)C(C)O1 (stereo not given in full) | – | > 1 µM | 0.0118 µM | – | – | – | 0.00428 µM | 0.0614 µM | – | 0.00435 µM and 0.00331 µM | 0.00432 µM and 0.00344 µM | – | 0.000538 µM | – | – | – | 0.00179 µM | – | 0.000927 µM | 0.00171 µM
CC(C)(C)C1=CC(O)(c2c3ccccc3c(C3(O)C=C(C(C)(C)C)C(=O)C(C(C)(C)C)=C3)c3ccccc23)C=C(C(C)(C)C)C1=O | > 100 µM | > 100 µM | > 100 µM | > 100 µM | > 100 µM | > 100 µM | – | > 100 µM | > 100 µM | > 100 µM | > 100 µM | – | – | – | – | – | – | – | – | –
N#Cc1nc(C(=O)c2ccccc2)oc1N | – | > 100 µM | > 100 µM | > 100 µM | > 100 µM | > 100 µM | > 100 µM | > 100 µM | – | > 100 µM | 8.45 µM | – | – | – | – | – | – | – | – | –
CCCCCCCCCCCCCCC(=O)NC(CCCCN)C(=O)CN1CCCC1C(=O)NCC(=O)NC(Cc1ccccc1)C(=O)N1CCCC1C(=O)NC(CO)C(=O)NC(Cc1ccc(O)cc1)C(=O)NC(CCCCN)C(=O)NC(CC(C)C)C(=O)NC(CCCN=C(N)N)C(=O)N1CCCC1C(=O)NCC(N)=O (stereo not given) (Pentadecanoyl-[X12]GFPSYKLRPG-NH2; configuration not given here) | 40.7 µM | – | 32.2 µM | 61.3 µM | – | 53.8 µM | 90.8 µM | 64.4 µM | 33.8 µM | > 100 µM | 58.5 µM | 17.2 µM | 16.8 µM | 27.6 µM | 24.1 µM | 27.3 µM | 27.8 µM | 15.6 µM | 27.6 µM | 37.5 µM
CC1CC2OC(=N)C1(C#N)C2(C#N)C#N (stereo not given) | 97.4 µM | 44.9 µM | 44.3 µM | > 100 µM | 33 µM | > 100 µM | – | > 100 µM | 24.8 µM | 43.5 µM | 43.1 µM | – | – | – | – | – | – | – | – | –
Fc1sc2c(c1F)C1CCC2C1 (stereo not given) | > 100 µM | > 100 µM | – | > 100 µM | > 100 µM | > 100 µM | – | > 100 µM | > 100 µM | > 100 µM | > 100 µM | – | – | – | – | – | – | – | – | –
Oc1cccc(-c2cn3cc(Cl)ccc3n2)c1 | 48.2 µM | > 100 µM | 81.5 µM | > 100 µM | > 100 µM | > 100 µM | 56.2 µM | > 100 µM | > 100 µM | > 100 µM | – | – | – | – | – | – | – | – | – | –
